# Measured values reported in PubChem BioAssay AID248 (DTP/NCI, 2004).
# Inconclusive results and toxic doses are left out.
# System: L1210 leukemia ip in BDF1 mice, survival T/C
# Test: NCI In Vivo Anticancer Drug Screen. Data for tumor model L1210 Leukemia (intraperitoneal) in B6D2F1 (BDF1) mice
# Conditions: endpoint: mean survival time, higher = longer survival
# How it was run: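 Ratio derived from survival: compound-dosed mice over vehicle-dosed mice, all bearing a transplantable tumor.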
# [1] = dose: 100.0 mg/kg/injection, schedule: Q01DX009 (ip), vehicle: Klucel (hydroxypropylcellulose) (HPC)
# [2] = dose: 200.0 mg/kg/injection, schedule: Q01DX009 (ip), vehicle: Klucel (hydroxypropylcellulose) (HPC)
# [3] = dose: 400.0 mg/kg/injection, schedule: Q01DX009 (ip), vehicle: Klucel (hydroxypropylcellulose) (HPC)
smiles,measurement,setting,value
CS(=O)(=O)OCCN(CCOS(C)(=O)=O)c1ccc(C=Nc2ccc(-c3csc(-c4ccc(Cl)cc4)n3)cc2)cc1,T/C,"dose: 66.0 mg/kg/injection, schedule: Q04DX003 (ip), vehicle: Klucel (hydroxypropylcellulose) (HPC)",122 % of control
same,T/C,"dose: 150.0 mg/kg/injection, schedule: Q04DX003 (ip), vehicle: Klucel (hydroxypropylcellulose) (HPC)",153 % of control
O=C1c2ccccc2S(=O)(=O)N1CCCBr,T/C,[1],89 % of control
same,T/C,[2],89 % of control
same,T/C,[3],89 % of control
Cc1nc(C)c(C(=O)N/N=C/c2ccc(N(CCCl)CCCl)cc2)s1,T/C,"dose: 50.0 mg/kg/injection, schedule: Q01DX001 (ip), vehicle: carboxymethylcellulose (CMC)",94 % of control
same,T/C,"dose: 100.0 mg/kg/injection, schedule: Q01DX001 (ip), vehicle: carboxymethylcellulose (CMC)",94 % of control
same,T/C,"dose: 200.0 mg/kg/injection, schedule: Q01DX001 (ip), vehicle: carboxymethylcellulose (CMC)",97 % of control
same,T/C,"dose: 400.0 mg/kg/injection, schedule: Q01DX001 (ip), vehicle: carboxymethylcellulose (CMC)",94 % of control
CCOC(=O)c1ccc(NC(=O)Nc2ccccc2C(F)(F)F)cc1,T/C,[1],88 % of control
same,T/C,[2],89 % of control
same,T/C,[3],86 % of control
COc1c(NC(=O)CC(C)=O)cccc1[N+](=O)[O-],T/C,[1],103 % of control
same,T/C,"dose: 100.0 mg/kg/injection, schedule: Q04DX002 (ip), vehicle: Klucel (hydroxypropylcellulose) (HPC)",92 % of control
same,T/C,[2],101 % of control
same,T/C,"dose: 200.0 mg/kg/injection, schedule: Q04DX002 (ip), vehicle: Klucel (hydroxypropylcellulose) (HPC)",92 % of control
same,T/C,[3],98 % of control
same,T/C,"dose: 400.0 mg/kg/injection, schedule: Q04DX002 (ip), vehicle: Klucel (hydroxypropylcellulose) (HPC)",101 % of control
CC(=O)CCCCC(=O)O,T/C,"dose: 100.0 mg/kg/injection, schedule: Q01DX009 (ip), vehicle: saline",111 % of control
same,T/C,"dose: 100.0 mg/kg/injection, schedule: Q04DX003 (ip), vehicle: saline",96 % of control
same,T/C,"dose: 200.0 mg/kg/injection, schedule: Q01DX009 (ip), vehicle: saline",89 % of control
same,T/C,"dose: 200.0 mg/kg/injection, schedule: Q04DX003 (ip), vehicle: saline",93 % of control
same,T/C,"dose: 400.0 mg/kg/injection, schedule: Q01DX009 (ip), vehicle: saline",94 % of control
same,T/C,"dose: 400.0 mg/kg/injection, schedule: Q04DX003 (ip), vehicle: saline",100 % of control
COC1NC(=O)NC(=O)C1=[N+]=[N-] (centres undefined),T/C,"dose: 5.0 mg/kg/injection, schedule: Q04DX003 (ip), vehicle: saline with Tween-80",115 % of control
same,T/C,"dose: 6.6 mg/kg/injection, schedule: Q01DX009 (ip), vehicle: saline with Tween-80",150 % of control
same,T/C,"dose: 10.0 mg/kg/injection, schedule: Q01DX009 (ip), vehicle: saline with Tween-80",170 % of control
same,T/C,"dose: 10.0 mg/kg/injection, schedule: Q04DX003 (ip), vehicle: saline with Tween-80",118 % of control
same,T/C,"dose: 15.0 mg/kg/injection, schedule: Q01DX009 (ip), vehicle: saline with Tween-80",163 % of control
